# Reference: article PMC7699247 (Antibiotics, 2020)
# Like-named read-outs stand apart in the source and are kept apart here.
# Columns and labels:
# [1] = target: T1, membrane-bound E. coli F1F0-ATPase (Escherichia coli, UniProt P0ABB4); design: endogenous in cells; host or cells: Escherichia coli culture; crude membrane pellet after EDTA, freeze-thaw, sonication and centrifugation; conditions: literature value, ref [7]; cited from earlier work
# From the text: Figure 2 (a) Dose-response curve representing the enzymatic activity (%) of E. coli F1F0-ATPase as a function of the log of the concentration of thymoquinone, quercetin and melittin, respectively. Error bars show the standard deviation obtained from experiments done in triplicate; (b) Comparison between the IC50 values of the reference inhibitors obtained by the developed method and from the literature. […] Good repeatabilities were obtained with relative standard deviations (RSD) below 6% and R^2 > 0.99. Likewise, melittin is found to be a strong potent inhibitor of E. coli F1F0-ATPase with its low IC50 value in the micromolar range.
# [2] = target: T1, membrane-bound E. coli F1F0-ATPase; assay: biochemical; design: endogenous in cells; host or cells: Escherichia coli culture; crude membrane pellet after EDTA, freeze-thaw, sonication and centrifugation; species or system Escherichia coli (ATCC 25922)
# Description: The supernatant is then removed.
# Assays for each phosphate concentration were done in triplicate.
# All tests were performed in triplicate.
# IC50 values were determined using the PRISM® 5.04 (GraphPad software, San Diego, CA, USA) software, from a dose-response curve established by drawing the percentage of enzymatic activity (%) at different concentrations of the inhibitor expressed in terms of a log (inhibitor) (μM).
# Different volumes of the stock solution of venom prepared in the buffer tris-HCl (pH = 8.5; 50 mM) are added to the reaction medium containing the transmembrane enzyme followed by ATP at 100 μM. […] The reaction is then stopped by the addition of 1% SDS (v/v). […] All assays were performed in triplicate.
# Different volumes of the stock solution of phospholipase A2 are added to the reaction medium containing the isolated membrane-bound enzyme followed by ATP at 100 μM.
# The effect of melittin on the membrane-bound F1F0-ATPase is studied as described in Section 4.7. Different volumes of the stock solution of melittin are added to the reaction medium containing the enzyme followed by ATP at 100 μM. […] The reaction is then stopped using a solution of 1% SDS (v/v). […] IC50 values were obtained from the dose-response curve using PRISM® 5.04 software. All assays were done in triplicate.
# [3] = target: T1, membrane-bound E. coli F1F0-ATPase; assay: Combination effect of PLA2 and melittin on membrane-bound E. coli F1F0-ATPase; conditions: read-out: remaining enzymatic activity, melittin alone
Compound,IC50 [1],IC50 ([2]; read-out: IC50),remaining activity at 9 µM [3],IC50 [2],"maximum inhibition ([2]; plateau of concentration curve, ATP 100 μM, 40 min, 37 °C, pH 8.5, triplicate)"
"O=c1c(O)c(-c2ccc(O)c(O)c2)oc2cc(O)cc(O)c12 [Quercetin, quercetin]",33 µM,30 ± 1.5 µM,–,–,–
"CC1=CC(=O)C(C(C)C)=CC1=O [Thymoquinone, thymoquinone]",–,57.5 ± 2.99 µM,–,–,–
CC[C@H](C)[C@H](NC(=O)CN)C(=O)NCC(=O)N[C@@H](C)C(=O)N[C@H](C(=O)N[C@@H](CC(C)C)C(=O)N[C@@H](CCCCN)C(=O)N[C@H](C(=O)N[C@@H](CC(C)C)C(=O)N[C@H](C(=O)N[C@H](C(=O)NCC(=O)N[C@@H](CC(C)C)C(=O)N1CCC[C@H]1C(=O)N[C@@H](C)C(=O)N[C@@H](CC(C)C)C(=O)N[C@H](C(=O)N[C@@H](CO)C(=O)N[C@@H](Cc1c[nH]c2ccccc12)C(=O)N[C@H](C(=O)N[C@@H](CCCCN)C(=O)N[C@@H](CCCNC(=N)N)C(=O)N[C@@H](CCCCN)C(=O)N[C@@H](CCCNC(=N)N)C(=O)N[C@@H](CCC(N)=O)C(=O)N[C@@H](CCC(N)=O)C(N)=O)[C@@H](C)CC)[C@@H](C)CC)[C@@H](C)O)[C@@H](C)O)C(C)C)C(C)C [melittin],–,–,51.7%,9.03 ± 0.27 µM,about 80%
